Assay results published in patent US9765101B2, “Organo-arsenoxide compounds and use thereof” (NewSouth Innovations Pty Limited, priority 2006, dated 2017).

Key:
Format in all cases: cell-based, bovine
BAE cells [1] = test: BAE cell proliferation assay (MTT, 72 h)
Experimental: BAE cells were from Cell Applications, San Diego, Calif. and BxPC-3, HT1080, LLC, PANC-1, MCF-7, HCT116 and K562 cells were from ATCC, Bethesda, Md. NB4 and MDCK2 cells were from Shane Supple (Kanematsu Laboratories, Royal Prince Alfred Hospital, Sydney, Australia) and P. Borst (The Netherlands Cancer Institute, Amsterdam, The Netherlands). BAE, HT1080, Panc-1, MCF-7, HCT116, MDCK2 and LLC cells were cultured in DMEM. NB4, K562 and BxPC-3 cells were cultured in RPMI medium. The cells were supplemented with 10% foetal calf serum (FBS), 2 mM L-glutamine, and 1 U·mL-1 penicillin/streptomycin. Cell culture plasticware was from Techno Plastic Products (Trasadingen, Switzerland). All other cell culture reagents were from Gibco (Gaithersburg, Md.).
Adherent cells were allowed to adhere overnight.

BAE cells [2] = test: BAE cell proliferation assay, 24, 48 or 72 h (Example 2)
Experimental: Bovine aortic endothelial (BAE) cells were from Cell Application (San Diego, Calif.). BAE cells were cultured in DMEM supplemented with 10% fetal calf serum, 2 mM L-glutamine, and 5 units per mL penicillin and streptomycin (Gibco, Gaithersburg, Md.). Cells were cultured at 37° C. in a 5% CO2, 95% air atmosphere. BAE cells were seeded in 96-well plates (5,000 cells per well) in 0.2 ml of culture medium. After 24 h of growth, the medium was replaced with fresh culture medium supplemented with GSAO, CAO or 4H10 and cells were cultured for an additional 24, 48 or 72 h. Viable attached cells were determined using the tetrazolium salt MTT (Sigma, St. Louis, Mo.) according to the manufacturer's protocol. Results were expressed as percentage of untreated controls.

BAE cells [3] = test: Accumulation of GSAO and CAO in BAE cells (ICPMS)
Experimental: (§1) Depending on the type of experiments, 1.6×10^6 or 7.5×10^5 BAE cells were seeded in petri dishes or 6-well-plates, respectively, and allowed to attach overnight. The medium was replaced and the cells were incubated for 30 min in the absence or presence of acivicin or 4H10. The cells were then incubated with 50 or 100 μM GSAO or CAO […] for 4 h. Cells were then washed twice with ice-cold PBS and lysed with 1 ml of 70% w/w nitric acid.

[4] = biological target: T1, multidrug resistance associated protein 1 (MRP-1) (Bos taurus, UniProt Q8HXQ5); test: Accumulation in BAE cells with MRP-1 inhibitor 4H10
T1 construct: host or cells: BAE (bovine aortic endothelial) cells
Experimental: FIG. 16. […] A. CAO accumulates in cells at a much faster rate than GSAO. BAE cells were incubated with 50 μM GSAO or CAO for 4 h. Cellular arsenic levels were determined by ICPMS. The rates of accumulation are GSAO and CAO are 0.03 and 0.20 nmol As atoms per 10^6 cells, respectively. Data points are the mean±SD of three determinations. The results are representative of two experiments. […] BAE cells pretreated for 30 min with 10 μM of the MRP-1 inhibitor 4H10 were incubated with 50 μM GSAO or CAO for 2 h. Cellular arsenic levels were determined by ICPMS. Data points are the mean±SD of three determinations. The results are representative of two experiments. C. GSAO and CAO IC50 values for proliferation arrest of endothelial cells. BAE cells were incubated with 0.8-100 μM GSAO or CAO for 24, 48 or 72 h. Cell viability was determined using MTT. Results are expressed as percentage of control. Values are mean±SD of triplicate determinations. Results are representative of three experiments.
as §1, with “Cells were then washed twice with ice-cold PBS and lysed with 1 ml of 70% w/w nitric acid.” left out

T1 sequence (Q8HXQ5 whole entry): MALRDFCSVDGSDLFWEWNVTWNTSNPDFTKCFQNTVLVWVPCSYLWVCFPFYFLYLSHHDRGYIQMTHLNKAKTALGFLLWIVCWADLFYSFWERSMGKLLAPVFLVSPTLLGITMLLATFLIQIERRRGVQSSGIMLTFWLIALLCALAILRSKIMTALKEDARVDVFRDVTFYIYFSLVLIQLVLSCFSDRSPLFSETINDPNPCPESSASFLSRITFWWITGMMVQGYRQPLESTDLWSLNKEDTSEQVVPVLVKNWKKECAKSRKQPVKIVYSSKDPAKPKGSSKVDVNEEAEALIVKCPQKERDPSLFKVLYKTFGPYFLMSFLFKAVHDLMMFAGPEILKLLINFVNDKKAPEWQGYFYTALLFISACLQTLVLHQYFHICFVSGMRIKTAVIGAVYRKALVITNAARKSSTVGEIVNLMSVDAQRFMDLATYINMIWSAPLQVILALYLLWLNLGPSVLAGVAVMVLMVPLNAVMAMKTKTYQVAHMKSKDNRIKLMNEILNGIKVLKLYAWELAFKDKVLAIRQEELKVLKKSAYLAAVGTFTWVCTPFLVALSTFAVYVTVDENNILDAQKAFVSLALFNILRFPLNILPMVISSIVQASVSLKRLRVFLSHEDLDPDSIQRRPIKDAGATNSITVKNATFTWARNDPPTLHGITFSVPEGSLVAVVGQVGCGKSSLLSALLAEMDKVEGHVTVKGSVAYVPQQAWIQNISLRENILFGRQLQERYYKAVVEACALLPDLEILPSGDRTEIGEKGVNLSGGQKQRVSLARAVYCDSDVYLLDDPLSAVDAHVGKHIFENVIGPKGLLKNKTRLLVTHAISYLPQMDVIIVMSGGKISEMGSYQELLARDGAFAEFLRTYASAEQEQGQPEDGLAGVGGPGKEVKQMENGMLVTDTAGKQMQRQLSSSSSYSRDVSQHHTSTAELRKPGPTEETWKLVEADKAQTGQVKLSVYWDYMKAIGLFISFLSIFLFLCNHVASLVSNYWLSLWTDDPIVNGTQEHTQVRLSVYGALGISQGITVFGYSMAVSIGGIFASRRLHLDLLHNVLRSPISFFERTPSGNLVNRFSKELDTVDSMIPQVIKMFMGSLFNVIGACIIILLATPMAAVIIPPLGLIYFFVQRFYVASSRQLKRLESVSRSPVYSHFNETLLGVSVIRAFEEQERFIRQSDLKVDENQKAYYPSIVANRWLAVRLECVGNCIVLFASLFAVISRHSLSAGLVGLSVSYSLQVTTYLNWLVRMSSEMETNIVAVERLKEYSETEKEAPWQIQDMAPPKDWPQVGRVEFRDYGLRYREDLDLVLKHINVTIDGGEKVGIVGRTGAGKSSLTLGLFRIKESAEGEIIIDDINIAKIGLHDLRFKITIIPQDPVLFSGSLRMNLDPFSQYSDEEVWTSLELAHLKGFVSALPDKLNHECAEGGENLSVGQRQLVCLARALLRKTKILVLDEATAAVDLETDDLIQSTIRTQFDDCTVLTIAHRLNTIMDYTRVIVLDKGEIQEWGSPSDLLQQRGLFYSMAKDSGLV

SMILES | effect on proliferation of BAE cells (BAE cells [1]) | anti-proliferative activity compared to GSAO (BAE cells [2]) | rate of accumulation in endothelial cells, fold faster than GSAO (BAE cells [3]) | rate of accumulation (BAE cells [3]; 50 μM, 4 h) | export by multidrug resistance associated protein 1 [4] | increase of cellular accumulation when MRP-1 was inhibited ([4]; 10 μM 4H10 30 min, then 50 μM compound 2 h)
CC(C)(SCC(=O)Nc1ccc([As](=O)(O)O)cc1)[C@@H](N)C(=O)O [(S)-Penicillamine-arsenonic acid, reference compound] | no effect on proliferation | – | – | – | – | –
NC(CSCC(=O)Nc1ccc([As](O)O)cc1)C(=O)O (stereo not drawn) [CAO, 4-(N—(S-cysteinylacetyl)amino)-phenylarsinous acid] | – | greater anti-proliferative activity than GSAO | ~8 fold | 0.20 nmol As atoms per 10^6 cells | exported from cells by the multidrug resistance associated protein 1 | ~3 fold
